Source: patent US9481648B2, “Kinase inhibitors” (Respivert Limited, priority 2013, dated 2016)
pIC50: −log10 of the molar value.

Molecular target: GSK 3α (Homo sapiens (Human), UniProt P49840)
Assay: GSK 3α enzyme inhibition (FRET, Z-LYTE; Method 2)
Assay type: biochemical
Conditions: read-out: IC50 Values for Enzyme Inhibition GSK3α
Method: The enzyme inhibitory activities of compounds disclosed herein are determined by FRET using synthetic peptides labelled with both donor and acceptor fluorophores (Z-LYTE, Invitrogen Ltd., Paisley, UK).
The inhibitory activities of compounds of the invention against the GSK 3α enzyme isoform (Invitrogen), are evaluated by determining the level of activation I phosphorylation of the target peptide. The GSK3-α protein (500 ng/mL, 2.5 μL) is mixed with the test compound (2.5 μL at either 4 μg/mL, 0.4 μg/mL, 0.04 μg/mL, or 0.004 μg/mL) for 2 hr at RT. The FRET peptide (8 μM, 2.5 μL), which is a phosphorylation target for GSK3α, and ATP (40 μM, 2.5 μL) are then added to the enzyme\compound mixture and the resulting mixture incubated for 1 hr. Development reagent (protease, 5 μL) is added for 1 hr prior to detection in a fluorescence microplate reader (Varioskan® Flash, ThermoFisher Scientific).
In all cases, the site-specific protease cleaves non-phosphorylated peptide only and eliminates the FRET signal. Phosphorylation levels of each reaction are calculated using the ratio of coumarin emission (donor) over fluorescein emission (acceptor), for which high ratios indicate high phosphorylation and low ratios indicate low phosphorylation levels.
This method follows the same steps as Method 1 above, but utilises a shorter period of mixing of the test compound (105 minutes instead of 2 hours) with the GSK3-α protein. In addition, the concentrations of test compound employed are either 10 μg/mL, 1 μg/mL, 0.1 μg/mL, or 0.01 μg/mL

GSK 3α, sequence (P49840 whole entry): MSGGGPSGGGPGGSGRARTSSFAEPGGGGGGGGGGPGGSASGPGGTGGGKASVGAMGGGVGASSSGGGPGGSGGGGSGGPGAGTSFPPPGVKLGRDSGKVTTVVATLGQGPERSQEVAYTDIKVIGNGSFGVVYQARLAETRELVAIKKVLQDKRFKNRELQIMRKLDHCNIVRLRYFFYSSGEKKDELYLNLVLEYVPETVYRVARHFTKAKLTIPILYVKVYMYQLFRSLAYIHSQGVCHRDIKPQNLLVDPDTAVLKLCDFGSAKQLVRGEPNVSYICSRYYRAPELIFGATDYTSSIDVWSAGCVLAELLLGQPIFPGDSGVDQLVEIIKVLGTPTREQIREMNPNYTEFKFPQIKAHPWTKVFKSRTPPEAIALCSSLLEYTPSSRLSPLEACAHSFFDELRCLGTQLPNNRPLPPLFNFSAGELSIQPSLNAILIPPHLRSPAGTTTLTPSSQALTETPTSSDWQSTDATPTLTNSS

| Compound | pIC50 |
| --- | --- |
| COCCOCCOCCOc1cc(Nc2cc(Oc3ccc(NC(=O)Nc4cc(C(C)(C)C)cc(C(=O)NCCN)c4OC)c4ccccc34)ccn2)cc(OC)c1 [83(g), N-(2-aminoethyl)-5-(tert-butyl)-2-methoxy-3-(3-(4-((2-((3-methoxy-5-(2-(2-(2-methoxy-ethoxy)ethoxy)ethoxy)phenyl)amino)pyridin-4-yl)oxy)naphthalen-1-yl)ureido)benzamide] | 5.66 |
| COCCOCCOCCOCCOCCOCCOCCNC(=O)c1cc(Nc2nccc(Oc3ccc(NC(=O)Nc4cc(C(C)(C)C)cc(NS(C)(=O)=O)c4OC)c4ccccc34)n2)cc(OC)c1 [Example 40, 3-((4-((4-(3-(5-(tert-Butyl)-2-methoxy-3-(methylsulfonamido)phenyl)ureido)naphthalen-1-yl)oxy)pyrimidin-2-yl)amino)-N-(2,5,8,11,14,17,20-heptaoxadocosan-22-yl)-5-methoxy-benzamide] | 6.42 |
| COCCOCCOCCOc1cc(Nc2nccc(Oc3ccc(NC(=O)Nc4cc(C(C)(C)C)cc(C(=O)NCC(=O)O)c4OC)c4ccccc34)n2)cc(OC)c1 [Example 44, 2-(5-(tert-Butyl)-2-methoxy-3-(3-(4-((2-((3-methoxy-5-(2-(2-(2-methoxyethoxy)ethoxy)-ethoxy)phenyl)amino)pyrimidin-4-yl)oxy)naphthalen-1-yl)ureido)benzamido)acetic acid] | 7.10 |
| COCCOCCOCCOc1cc(Nc2nccc(Oc3ccc(NC(=O)Nc4cc(C(C)(C)C)cc(NS(=O)(=O)N(C)C)c4OC)c4ccccc34)n2)cc(OC)c1 [Example 74, N-(5-(tert-Butyl)-2-methoxy-3-(3-(4-((2-((3-methoxy-5-(2-(2-(2-methoxyethoxy)ethoxy)-ethoxy)phenyl)amino)pyrimidin-4-yl)oxy)naphthalen-1-yl)ureido)phenyl)dimethylamino-sulfonamide] | 5.01 |
| COCCOCCOCCOc1cc(Nc2nccc(Oc3ccc(NC(=O)Nc4cc(C(C)(C)C)cc(C(=O)NC(C)C)c4OC)c4ccccc34)n2)cc(OC)c1 [Example 42, 5-(tert-Butyl)-N-isopropyl-2-methoxy-3-(3-(4-((2-((3-methoxy-5-(2-(2-(2-methoxyethoxy)-ethoxy)ethoxy)phenyl)amino)pyrimidin-4-yl)oxy)naphthalen-1-yl)ureido)benzamide] | 6.15 |
| COCCOCCOCCOc1cc(Nc2nccc(Oc3ccc(NC(=O)Nc4cc(C(C)(C)C)cc(C(=O)N(C)C)c4OC)c4ccccc34)n2)cc(OC)c1 [Example 19, 5-(tert-yl)-)-2-methoxy-3-(3-(4-((2-((3-methoxy-5-(2-(2-(2-methoxyethoxy)ethoxy)-ethoxy)phenyl)amino)pyrimidin-4-yl)oxy)naphthalen-1-yl)ureido-N,N-dimethylbenzamide] | 5.35 |
| COCCOCCOCCOc1cc(Nc2nccc(Oc3ccc(NC(=O)Nc4cc(C(C)(C)C)cc(NS(=O)(=O)C5CCCCC5)c4OC)c4ccccc34)n2)cc(OC)c1 [Example 72, N-(5-(tert-Butyl)-2-methoxy-3-(3-(4-((2-((3-methoxy-5-(2-(2-(2-methoxyethoxy)ethoxy)-ethoxy)phenyl)amino)pyrimidin-4-yl)oxy)naphthalen-1-yl)ureido)phenyl)cyclohexane-sulfonamide] | 4.95 |
| COCCOCCOCCOc1cc(Nc2nccc(Oc3ccc(NC(=O)Nc4cc(C(C)(C)C)cc(C(=O)NCc5ccccc5)c4OC)c4ccccc34)n2)cc(OC)c1 [Example 38, N-Benzyl-5-(tert-butyl)-2-methoxy-3-(3-(4-((2-((3-methoxy-5-(2-(2-(2-methoxyethoxy)-ethoxy)ethoxy)phenyl)amino)pyrimidin-4-yl)oxy)naphthalen-1-yl)ureido)benzamide] | 4.97 |
| C#Cc1cc(Nc2nccc(Oc3ccc(NC(=O)Nc4cc(C(C)(C)C)cc(C(=O)NC)c4OC)c4ccccc34)n2)cc(C(=O)N[C@@H](C)CN2CCOCC2)c1 [Example 60, (S)-5-(tert-Butyl)-3-(3-(4-((2-((3-ethynyl-5-((1-morpholinopropan-2-yl)carbamoyl)phenyl)amino)pyrimidin-4-yl)oxy)naphthalen-1-yl)ureido)-2-methoxy-N-methylbenzamide] | 6.27 |
| C#Cc1cc(Nc2nccc(Oc3ccc(NC(=O)Nc4cc(C(C)(C)C)cc(C(=O)NC)c4OC)c4ccccc34)n2)cc(C(=O)N[C@H](C)CN2CCOCC2)c1 [Example 61, (R)-5-(tert-Butyl)-3-(3-(4-((2-((3-ethynyl-5-((1-morpholinopropan-2-yl)carbamoyl)phenyl)amino)pyrimidin-4-yl)oxy)naphthalen-1-yl)ureido)-2-methoxy-N-methylbenzamide] | 6.43 |
| COCCNC(=O)c1cc(C(C)(C)C)cc(NC(=O)Nc2ccc(Oc3ccnc(Nc4cc(OC)cc(OCCOCCOCCOC)c4)n3)c3ccccc23)c1OC [Example 43, 5-(tert-Butyl)-2-methoxy-3-(3-(4-((2-((3-methoxy-5-(2-(2-(2-methoxyethoxy)ethoxy)-ethoxy)phenyl)amino)pyrimidin-4-yl)oxy)naphthalen-1-yl)ureido)-N-(2-methoxyethyl)-benzamide] | 6.28 |

Results, then the compound that gave them:

| pIC50 | Compound |
| --- | --- |
| 5.99 | COc1cc(Nc2cc(Oc3ccc(NC(=O)Nc4cc(C(C)(C)C)cc(NS(C)(=O)=O)c4OC)c4ccccc34)ccn2)cc(C(=O)NCCN2CCCC2)c1 [83(d), 3-((4-((4-(3-(5-(tert-butyl)-2-methoxy-3-(methysulfonamido)phenyl)ureido)naphthalen-1-yl)oxy)pyridin-2-yl)amino)-5-methoxy-N-(2-(pyrrolidin-1-yl)ethyl)benzamide] |
| 6.13 | COc1cc(Nc2cc(Oc3ccc(NC(=O)Nc4cc(C(C)(C)C)cc(NS(C)(=O)=O)c4OC)c4ccccc34)ccn2)cc(C(=O)NCCN2CC[S+]([O-])CC2)c1 [85(j), 3-[[4-[[4-[[5-tert-Butyl-3-(methanesulfonanido)-2-methoxyphenyl]-carbamoylamino]-1-naphthyl]oxy]-2-pyridyl]amino]-5-methoxy-N-[2-(1-oxo-1,4-thiazinan-4-yl)ethyl]benzamide] |
| 5.72 | COCCOCCOCCOc1cc(Nc2nccc(Oc3ccc(NC(=O)Nc4cc(C(C)(C)C)cc(N)c4OC)c4ccccc34)n2)cc(OC)c1 [Example 25, 1-(3-Amino-5-(tert-butyl)-2-methoxyphenyl)-3-(4-((2-((3-methoxy-5-(2-(2-(2-methoxy-ethoxy)ethoxy)ethoxy)phenyl)amino)pyrimidin-4-yl)oxy)naphthalen-1-yl)urea] |
| 5.67 | COCCOCCOCCOc1cc(Nc2nccc(Oc3ccc(NC(=O)Nc4cc(C(C)(C)C)cc(C#N)c4OC)c4ccccc34)n2)cc(OC)c1 [Example 22, 1-(5-(tert-Butyl)-3-cyano-2-methoxyphenyl)-3-(4-((2-((3-methoxy-5-(2-(2-(2-methoxy-ethoxy)ethoxy)ethoxy)phenyl)amino)pyrimidin-4-yl)oxy)naphthalen-1-yl)urea] |
| 6.74 | COc1c(NC(=O)Nc2ccc(Oc3ccnc(Nc4ccccc4)c3)c(F)c2F)cc(C(C)(C)C)cc1C(=O)NC1COC1 [Example 82, 5-(tert-Butyl)-3-(3-(2,3-difluoro-4-((2-(phenylamino)pyridin-4-yl)oxy)phenyl)ureido)-2-methoxy-N-(oxetan-3-yl)benzamide] |
| 6.05 | COc1c(NC(=O)Nc2ccc(Oc3ccnc(Nc4ccccc4)n3)c3ccccc23)cc(C(C)(C)C)cc1C(=O)NC1COC1 [Example 78, 5-(tert-Butyl)-2-methoxy-N-(oxetan-3-yl)-3-(3-(4-((2-(phenylamino)pyrimidin-4-yl)oxy)-naphthalen-1-yl)ureido)benzamide] |
| 5.58 | COCCOCCOCCOc1cc(Nc2nccc(Oc3ccc(NC(=O)Nc4cc(C(C)(C)C)cc(NS(=O)(=O)C(F)(F)F)c4OC)c4ccccc34)n2)cc(OC)c1 [Example 71] |
| 5.45 | C#Cc1cc(Nc2cc(Oc3ccc(NC(=O)Nc4cc(C(C)(C)C)cc(NS(C)(=O)=O)c4OC)c4ccccc34)ccn2)cc(C(=O)NCCN2CCN(C)CC2)c1 [Example 85(c), 3-[[4-[[4-[[5-tert-Butyl-3-(methanesulfonamido)-2-methoxyphenyl]-carbamoylamino]-1-nahthyl]oxy]-2-pyridyl]amino]-5-ethynyl-N-[2-(4-methylpiperazin-1-yl)ethyl]benzamide] |
| 4.84 | COc1c(NC(=O)Nc2ccc(Oc3ccnc(Nc4ccccc4)c3)c3ccccc23)cc(C(C)(C)C)cc1NS(=O)(=O)N1CCOCC1 [83(f), N-(5-(tert-butyl)-2-methoxy-3-(3-(4-((2-(phenylamino)pyridin-4-yl)oxy)naphthalen-1-yl)ureido)phenyl)morpholine-4-sulfonamide] |
| 5.35 | COc1c(NC(=O)Nc2ccc(Oc3ccnc(Nc4ccccc4)c3)c3ccccc23)cc(C(C)(C)C)cc1C(=O)NC1CCN(C)CC1 [84(b), 3-[[4-[(2-Anilino-4-pyridyl)oxy]-1-naphthyl]carbamoylamino]-5-tert-butyl-2-methoxy-N-(1-methyl-4-piperidyl)benzamide] |
| 6.52 | COc1cc(Nc2nccc(Oc3ccc(NC(=O)Nc4cc(C(C)(C)C)cc(NS(C)(=O)=O)c4OC)c4ccccc34)n2)cc(C(=O)NCCN2CCN(C)CC2)c1 [Example 85(e), 3-[[4-[[4-[[5-tert-Butyl-3-(methanesulfonamido)-2-methoxyphenyl]-carbamoylamino]-1-naphthyl]oxy]pyrimidin-2-yl]amino]-5-methoxy-N-[2-(4-methyypiperazin-1-yl)ethyl]benzamide] |
